Measurements reported in the Kinase Knowledgebase extract (Sharma et al. 2016).

target: EGFR (UniProt P00533); test: Inhibition of EGFR Kinase Activity
Sequence (P00533 whole entry, looked up): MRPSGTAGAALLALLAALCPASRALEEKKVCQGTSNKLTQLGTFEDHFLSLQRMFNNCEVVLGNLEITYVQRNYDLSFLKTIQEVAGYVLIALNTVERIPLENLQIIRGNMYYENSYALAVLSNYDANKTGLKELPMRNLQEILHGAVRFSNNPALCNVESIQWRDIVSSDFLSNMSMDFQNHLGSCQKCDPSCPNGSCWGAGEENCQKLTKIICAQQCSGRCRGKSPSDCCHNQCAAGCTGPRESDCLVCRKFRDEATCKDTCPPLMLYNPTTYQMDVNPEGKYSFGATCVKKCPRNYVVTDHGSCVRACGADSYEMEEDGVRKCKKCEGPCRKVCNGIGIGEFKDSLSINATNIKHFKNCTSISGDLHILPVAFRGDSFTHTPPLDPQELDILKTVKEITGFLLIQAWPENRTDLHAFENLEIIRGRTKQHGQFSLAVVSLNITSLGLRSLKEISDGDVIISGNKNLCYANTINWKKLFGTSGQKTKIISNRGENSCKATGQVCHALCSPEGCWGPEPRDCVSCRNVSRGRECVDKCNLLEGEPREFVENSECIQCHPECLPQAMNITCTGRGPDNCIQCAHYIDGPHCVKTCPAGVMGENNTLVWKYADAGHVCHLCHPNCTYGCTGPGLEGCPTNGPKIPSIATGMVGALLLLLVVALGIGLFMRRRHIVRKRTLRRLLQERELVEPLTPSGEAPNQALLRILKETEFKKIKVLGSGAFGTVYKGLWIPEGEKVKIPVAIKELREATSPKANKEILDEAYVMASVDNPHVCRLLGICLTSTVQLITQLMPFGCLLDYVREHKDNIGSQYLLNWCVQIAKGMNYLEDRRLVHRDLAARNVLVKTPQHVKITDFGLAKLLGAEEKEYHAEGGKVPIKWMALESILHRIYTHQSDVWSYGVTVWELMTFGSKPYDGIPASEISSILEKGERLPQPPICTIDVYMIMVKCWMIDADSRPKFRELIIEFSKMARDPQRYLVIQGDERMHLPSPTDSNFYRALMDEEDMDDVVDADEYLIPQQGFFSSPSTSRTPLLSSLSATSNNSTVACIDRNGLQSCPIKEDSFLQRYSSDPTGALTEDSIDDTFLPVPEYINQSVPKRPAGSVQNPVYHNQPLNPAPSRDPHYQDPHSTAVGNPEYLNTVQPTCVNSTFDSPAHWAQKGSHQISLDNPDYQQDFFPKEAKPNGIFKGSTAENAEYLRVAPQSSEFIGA

IC50	SMILES
< 50 µM	CC#CC(=O)Nc1cccc(Nc2ncnc(N(CC)n3c(=O)n(C(=O)C(C)(C)C)c4ccccc43)n2)c1
< 50 µM	C=CC(=O)Nc1cc(Nc2ncnc(N(C)c3ccc(OCc4ccccc4)c(Cl)c3)n2)ccc1OCCCC1CCN(C)CC1
< 50 µM	C=CC(=O)Nc1ccc(Nc2ncnc(N(C)c3cccc(S(=O)(=O)c4ccc([N+](=O)[O-])cc4)c3)n2)cc1
< 50 µM	C=CC(=O)Nc1cccc(Nc2ncnc(N(C)c3cc(Cl)ccc3C)n2)c1
< 50 µM	CC#CC(=O)Nc1cccc(Nc2ncnc(N(C)c3cccc(CC(=O)OC)c3)n2)c1
< 50 µM	C=CC(=O)Nc1cc(Nc2ncnc(Nc3ccc4c(cnn4Cc4ccccc4)c3)n2)ccc1OCCCC1CCN(C)CC1
< 50 µM	C=CC(=O)Nc1cccc(Nc2ncnc(Nc3ccc(OCCO)cc3)n2)c1
< 50 µM	CC#CC(=O)Nc1cccc(Nc2ncnc(N(C)c3ccc(OCCOC)c(OC)c3)n2)c1
< 50 µM	C=CC(=O)N(CCCN1CCOCC1)c1cccc(Nc2ncnc(Nc3ccc(F)c(Cl)c3)n2)c1
< 50 µM	C=CC(=O)Nc1ccc(Nc2ncnc(NC3CC3c3ccccc3)n2)cc1 (stereo not given)
< 50 µM	CC#CC(=O)Nc1cccc(Nc2ncnc(Nc3cccc4ccccc34)n2)c1
< 50 µM	CC#CC(=O)Nc1cccc(Nc2ncnc(Nc3ccc4NN(=Cc4c3)Cc5ccccn5)n2)c1
< 50 µM	C=CCN(c1ccc(OCCO)cc1)c1ncnc(Nc2cccc(NC(=O)C=C)c2)n1
< 50 µM	C=CCN(c1cccc(C)c1)c1ncnc(Nc2ccc(NC(=O)C=C)cc2)n1
< 50 µM	C=CC(=O)N(CCCN1CCOCC1)c1cccc(Nc2ncnc(Nc3ccc(OCCO)cc3)n2)c1
< 50 µM	C=CC(=O)Nc1cccc(Nc2ncnc(Nc3ccc(OCc4cccc(F)c4)c(Cl)c3)n2)c1
< 50 µM	CC#CC(=O)Nc1cccc(Nc2ncnc(N(CC)c3cc(Cl)cc4ccccc34)n2)c1
< 50 µM	C=CC(=O)Nc1ccc(Nc2ncnc(N(CC)C3CC3c3ccc(Cl)cc3)n2)cc1 (stereo not given)
< 50 µM	C=CCN(c1ncnc(Nc2cccc(NC(=O)C#CC)c2)n1)C1CC1c1ccc(Cl)cc1 (stereo not given)
< 50 µM	C=CC(=O)Nc1cc(Nc2ncnc(Nc3cccc(Cl)c3)n2)ccc1OCCCN1CCOCC1

IC50	SMILES
< 50 µM	CC#CC(=O)Nc1cccc(Nc2ncnc(N(C)c3cccc4ccccc34)n2)c1
< 50 µM	C=CC(=O)Nc1cccc(Nc2ncnc(NN3CCCc4cc(OC)ccc43)n2)c1
< 50 µM	C=CC(=O)Nc1cccc(Nc2ncnc(NC3CC3c3ccc(Cl)cc3)n2)c1 (stereo not given)
< 50 µM	C=CC(=O)Nc1ccc(Nc2ncnc(N(CC)c3cccc(CC(=O)OC)c3)n2)cc1
< 50 µM	C=CC(=O)Nc1ccc(Nc2ncnc(NN3CCCc4ccc(C(F)(F)F)cc43)n2)cc1
< 50 µM	C=CC(=O)N(CCCN1CCOCC1)c1cccc(Nc2ncnc(Nc3ccc(OCc4ccccc4)cc3)n2)c1
< 50 µM	CC#CC(=O)Nc1cccc(Nc2ncnc(N(C)c3ccc(C(=O)OC)cc3)n2)c1
< 50 µM	C=CCN(c1ccc(F)c(Cl)c1)c1ncnc(Nc2cccc(NC(=O)C#CC)c2)n1
< 50 µM	C=CC(=O)Nc1cccc(Nc2ncnc(Nc3cc(Cl)ccc3C)n2)c1
< 50 µM	C=CC(=O)Nc1ccc(Nc2ncnc(N(CC)c3ccc(OC)c(OC)c3)n2)cc1
< 50 µM	C=CC(=O)Nc1ccc(Nc2ncnc(Nc3cc(OC)c(OC)c(OCCN4CCOCC4)c3)n2)cc1
< 50 µM	C=CC(=O)Nc1cccc(Nc2ncnc(N(CC)c3cc(Cl)ccc3C)n2)c1
< 50 µM	C=CC(=O)Nc1cccc(Nc2ncnc(N(C)c3ccc(OC)c(OC)c3)n2)c1
< 50 µM	CC#CC(=O)Nc1cccc(Nc2ncnc(N(CC)c3ccc(OCCO)cc3)n2)c1
< 50 µM	C=CC(=O)Nc1ccc(Nc2ncnc(N(CC)c3ccc(OCCO)cc3)n2)cc1
< 50 µM	C=CCN(c1ncnc(Nc2ccc(NC(=O)C=C)cc2)n1)n1c(=O)n(C(=O)C(C)(C)C)c2ccccc21
< 50 µM	CC#CC(=O)Nc1cccc(Nc2ncnc(Nc3ccc(OC)c(OC)c3)n2)c1
< 50 µM	C#CCC(=O)Nc1cccc(Nc2ncnc(NN3CCCc4cc(OC)ccc43)n2)c1
< 50 µM	CC#CC(=O)Nc1cc(Nc2ncnc(Nc3cccc(Cl)c3)n2)ccc1OCCCC1CCN(C)CC1

Continued, compound first:

SMILES	IC50
C=CCN(c1ncnc(Nc2cccc(NC(=O)C=C)c2)n1)C1CC1c1ccc(Cl)cc1 (stereo not given)	< 50 µM
C=CC(=O)Nc1cc(Nc2ncnc(Nc3ccc4c(ccn4Cc4ccccc4)c3)n2)ccc1OCCCN1CCOCC1	< 50 µM
C=CC(=O)Nc1cccc(Nc2ncnc(N(CC)c3ccc(OCCC)c(OCCC)c3)n2)c1	< 50 µM
C=CCN(c1ncnc(Nc2ccc(NC(=O)C=C)cc2)n1)C1CC1c1ccccc1 (stereo not given)	< 50 µM
C=CC(=O)Nc1cccc(Nc2ncnc(N(C)c3ccc(OC)c(OCCOC)c3)n2)c1	< 50 µM
C=CC(=O)Nc1cccc(Nc2ncnc(NN3CCCc4cc(Cl)ccc43)n2)c1	< 50 µM
C=CC(=O)Nc1cccc(Nc2ncnc(Nc3ccc4nc(Cc5ccccc5)[nH]c4c3)n2)c1	< 50 µM
CC#CC(=O)Nc1cccc(Nc2ncnc(N(C)c3ccc(OCCO)cc3)n2)c1	< 50 µM
C#Cc1cccc(Nc2ncnc(Nc3cccc(NC(=O)C=C)c3)n2)c1	< 50 µM
C=CC(=O)Nc1cccc(Nc2ncnc(N(CC)C3CC3c3ccccc3)n2)c1 (stereo not given)	< 50 µM
C=CCN(c1ncnc(Nc2cccc(NC(=O)C=C)c2)n1)c1cccc2ccccc12	< 50 µM
C=CC(=O)Nc1cccc(Nc2ncnc(N(C)c3cccc(C(N)=O)c3)n2)c1	< 50 µM
C=CC(=O)Nc1ccc(Nc2ncnc(N(C)n3c(=O)n(C(=O)C(C)(C)C)c4ccccc43)n2)cc1	< 50 µM
CC#CC(=O)Nc1cc(Nc2ncnc(Nc3ccc4c(cnn4Cc4ccccc4)c3)n2)ccc1OC	< 50 µM
C=CCN(c1ccc(OCC)c(OCC)c1)c1ncnc(Nc2cccc(NC(=O)C=C)c2)n1	< 50 µM
C=CCN(c1ccc(F)c(Cl)c1)c1ncnc(Nc2cccc(NC(=O)C=C)c2)n1	< 50 µM
C=CC(=O)Nc1ccc(Nc2ncnc(Nc3ccc(OC)cc3)n2)cc1	< 50 µM
C=CC(=O)Nc1cc(Nc2ncnc(N(C)c3ccc4c(cnn4Cc4ccccc4)c3)n2)ccc1OCCCN1CCOCC1	< 50 µM
CC#CC(=O)Nc1cccc(Nc2ncnc(Nc3ccc(OCc4ccccc4)cc3)n2)c1	< 50 µM

SMILES	IC50
C=CCN(c1ccc(OCCOC)c(OC)c1)c1ncnc(Nc2cccc(NC(=O)C#CC)c2)n1	< 50 µM
C=CC(=O)Nc1cccc(Nc2ncnc(N(C)c3ccc(OCc4ccccc4)c(Cl)c3)n2)c1	< 50 µM
CC#CC(=O)Nc1cccc(Nc2ncnc(Nc3ccc4c(cnn4Cc4ccccc4)c3)n2)c1	< 50 µM
CC#CC(=O)Nc1cccc(Nc2ncnc(N(C)c3ccc(OCc4ccccc4)cc3)n2)c1	< 50 µM
C=CC(=O)Nc1ccc(Nc2ncnc(Nc3cccc(C(N)=O)c3)n2)cc1	< 50 µM
C=CC(=O)Nc1cc(Nc2ncnc(N(C)c3ccc4c(ccn4Cc4ccccc4)c3)n2)ccc1OCCCN1CCOCC1	< 50 µM
C=CCN(c1ccc(C(=O)OC)cc1)c1ncnc(Nc2cccc(NC(=O)C#CC)c2)n1	< 50 µM
CC#CC(=O)Nc1cccc(Nc2ncnc(N(CC)c3ccc(OC)c(OC)c3)n2)c1	< 50 µM
CC#CC(=O)Nc1cc(Nc2ncnc(N(C)c3ccc4c(cnn4Cc4ccccc4)c3)n2)ccc1OCCCN1CCOCC1	< 50 µM
CC#CC(=O)Nc1cc(Nc2ncnc(Nc3cccc(Cl)c3)n2)ccc1OCCCN1CCOCC1	< 50 µM
C=CC(=O)Nc1ccc(Nc2ncnc(N(CC)c3ccc(C(=O)OC)cc3)n2)cc1	< 50 µM
C=CCN(c1ccc(OC)c(OCCOC)c1)c1ncnc(Nc2ccc(NC(=O)C=C)cc2)n1	< 50 µM
C=CC(=O)Nc1ccc(Nc2ncnc(N(CC)C3CC3c3ccccc3)n2)cc1 (stereo not given)	< 50 µM
CC#CC(=O)Nc1cccc(Nc2ncnc(N(C)c3cccc(C(N)=O)c3)n2)c1	< 50 µM
C=CC(=O)N(CCCN1CCOCC1)c1cccc(Nc2ncnc(Nc3cc(Cl)ccc3C)n2)c1	< 50 µM
CC#CC(=O)Nc1cccc(Nc2ncnc(Nn3c(=O)n(C(=O)C(C)(C)C)c4ccccc43)n2)c1	< 50 µM
C=CCN(c1ccc(OCCC)c(OCCC)c1)c1ncnc(Nc2ccc(NC(=O)C=C)cc2)n1	< 50 µM
CC#CC(=O)Nc1cc(Nc2ncnc(N(C)c3ccc(OCc4ccccc4)c(Cl)c3)n2)ccc1OCCCN1CCOCC1	< 50 µM
C=CC(=O)Nc1ccc(Nc2ncnc(Nc3ccc4c(cnn4Cc4ccccc4)c3)n2)cc1OC	< 50 µM

SMILES	IC50
C=CCN(c1ccc(OCCO)cc1)c1ncnc(Nc2cccc(NC(=O)C#CC)c2)n1	< 50 µM
CC#CC(=O)Nc1cc(Nc2ncnc(N(C)c3ccc4c(cnn4Cc4ccccc4)c3)n2)ccc1OC	< 50 µM
C=CC(=O)N(CCCN1CCOCC1)c1cccc(Nc2ncnc(NC3CC3c3ccc(Cl)cc3)n2)c1 (stereo not given)	< 50 µM
CC#CC(=O)Nc1cc(Nc2ncnc(Nc3ccc4c(cnn4Cc4ccccc4)c3)n2)ccc1OCCCN1CCOCC1	< 50 µM
C=CC(=O)Nc1cc(Nc2ncnc(Nc3ccc4c(cnn4Cc4ccccc4)c3)n2)ccc1OCCCN1CCOCC1	< 50 µM
CC#CC(=O)Nc1cccc(Nc2ncnc(Nc3cc(Cl)cc4ccccc34)n2)c1	< 50 µM
CC#CC(=O)Nc1cccc(Nc2ncnc(Nc3cccc(S(=O)(=O)c4ccc([N+](=O)[O-])cc4)c3)n2)c1	< 50 µM
C=CC(=O)Nc1cccc(Nc2ncnc(N(C)n3c(=O)[nH]c4ccccc43)n2)c1	< 50 µM
C=CC(=O)Nc1cccc(Nc2ncnc(Nc3ccc(OCc4ccccc4Br)c(Cl)c3)n2)c1	< 50 µM
C=CC(=O)Nc1cc(Nc2ncnc(Nc3ccc4c(cnn4Cc4ccccc4)c3)n2)ccc1OC	< 50 µM
C=CCN(c1ncnc(Nc2cccc(NC(=O)C#CC)c2)n1)c1cc(Cl)ccc1C	< 50 µM
C=CCN(c1ncnc(Nc2cccc(NC(=O)C#CC)c2)n1)n1c(=O)n(C(=O)C(C)(C)C)c2ccccc21	< 50 µM
CCN(c1ccc2NN(=Cc2c1)Cc3ccccn3)c4ncnc(Nc5cccc(NC(=O)C=C)c5)n4	< 50 µM
C=CCN(c1cccc(Cl)c1)c1ncnc(Nc2cccc(NC(=O)C#CC)c2)n1	< 50 µM
C=CC(=O)Nc1cccc(Nc2ncnc(N(C)c3cccc(Cl)c3)n2)c1	< 50 µM
C=CCN(c1cccc(C)c1)c1ncnc(Nc2cccc(NC(=O)C=C)c2)n1	< 50 µM
C/C=C/C(=O)Nc1cccc(Nc2ncnc(NC3CC3c3ccccc3)n2)c1 (stereo not given)	< 50 µM
C=CC(=O)Nc1cccc(Nc2ncnc(Nc3cccc4ccccc34)n2)c1	< 50 µM
